According to patent US7572803B2 (The Christus Stehlin Foundation for Cancer Research, priority 2007, dated 2009):
Values joined by “and” are separate entries in the source; they are usually repeats but may differ in a detail not shown here. Equal values may be shown once.

What was measured:
human tumor xenografts = conditions: in mice, against human tumor xenografts; cited from earlier work
[1] = Pharmacokinetics for CPT in human plasma (lactone ring intact); assay type: in vitro ADME; conditions: read-out: half-life time of the drug with the lactone ring intact
[2] = Determination of PK parameters after oral administration to nude mice; assay type: in vivo
Procedure: The determination of PK parameters of crystalline CZ48 hydrate. Pharmacokinetic profile of crystalline camptothecin-20-O-propionate hydrate with a single dose of 2000 mg/kg was recorded following an oral administration to nude mice. […] Camptothecin-20-O-acetate, an analogue of CZ48 which was not a crystalline hydrate, was used as an internal standard for determining all PK parameters of the CZ48 hydrate. A 100 μL plasma from the mouse treated with crystalline CZ48 hydrate at dose of 2000 mg/kg was transferred into a 2-mL test-tube, and then 100 μL of internal-standard working solution (400 ng/mL) was also added to the tube. To the mixture, were also added 200 μL of 1% acetic acid solution and 1 mL ethyl ether. After vortex-mixing for 10 s, the mixture was incubated at room temperature on a shaker for 10 min, and then centrifuged at 10,000×g for 15 min. The upper layer obtained from the centrifugation was transferred into a clean tube and evaporated to dryness using an evaporator at 40° C. under a stream of nitrogen. The residue was reconstituted in 200 μL of water/acetonitrite (50/50, v/v) solvent system, and a 20-μL portion of the aliquot was injected into HPLC system for analysis. For the study, A 100 μL blank plasma from untreated mouse was also processed in the same manner as the treated.

MYE DSRCT line = experiment: Effective dose, MYE xenograft in nude mice; assay type: in vivo, human; conditions: oral, dose giving positive response
Procedure: (§1) In vivo anti-tumor activity determination. All the animal experiments were performed on nude Swiss mice of the NIH, high-fertility strain. They were bred and raised in laboratory under strict pathogen-free conditions. For anti-tumor activity determination, a tumor xenograft growing in a nude mouse, approximately 1 cm^3 in size, was surgically removed under sterile conditions, finely minced with iridectomy scissors, and suspended in cell culture medium at the ratio 1:10, v/v. One half of 1 mL of this suspension, containing about 50 mg of wet-weight tumor mince was subcutaneously inoculated on the upper half of the dorsal thorax of the mouse. Groups of four or five animals were used. Hydrated crystalline CZ48 was finely suspended in cottonseed oil and then injected into the stomach cavity of the mouse through the anterior abdominal wall using a 26 gauge needle. The weekly schedule used for oral administration of hydrated crystalline CZ48 was once a day for 7 days, or five days on and two days off. This schedule was employed throughout all the animal experiments. Treatment was initiated when the tumor had reached a volume of about 200 mm^3, i.e., well-vascularized, measurable, and growing exponentially. Tumors growing in animals were checked and measured with a caliper once a week. The effective doses were established when a positive response in mouse was reached.

DOY lung tumor line = experiment: Effective dose, DOY xenograft in nude mice; assay type: in vivo, human; conditions: oral, dose giving positive response
Procedure: as §1

human Lung tumor lines = experiment: Anti-tumor activity, lung tumor xenografts in nude mice; assay type: in vivo; conditions: oral
Text: (§2) In vivo anti-tumor activity determination. The human tumors used in the experiments discussed herein included 1 bladder line, 3 breast lines, 4 colon lines, 1 DSRCT line, 1 kidney line, 2 melanoma lines, 2 lung lines, 7 pancreatic lines, and 1 prostate line. The hydrated crystalline CZ48 drug was finely suspended in cottonseed oil and stored in a refrigerator for using. The suspension was orally administered to the mice bearing human tumors once a day continuously for 5 days on and 2 days off or once a day for seven days for the whole treatment period. The treatment period for the various tumor lines varied, ranging from two weeks to one year. […] With the continuous schedule (daily treatment), one of those two negatively responded pancreatic tumor lines under the 5/2 schedule achieved the positive response.
(§3) In vivo anti-tumor activity determination. All the animal experiments were performed on nude Swiss mice of the NIH, high-fertility strain. They were bred and raised in laboratory under strict pathogen-free conditions. For anti-tumor activity determination, a tumor xenograft growing in a nude mouse, approximately 1 cm^3 in size, was surgically removed under sterile conditions, finely minced with iridectomy scissors, and suspended in cell culture medium at the ratio 1:10, v/v. […] Tumors growing in animals were checked and measured with a caliper once a week. […]

SPA lung tumor line = experiment: Effective dose, SPA xenograft in nude mice; assay type: in vivo, human; conditions: oral, dose giving positive response
Procedure: as §1

[3] = In vivo toxicity determination (body weight) in nude mice; conditions: continuously for 60 days
Procedure: In vivo toxicity determination. Groups of 4 or 5 animals of about the same age and having similar weights were chosen and treated with crystalline CZ48 hydrate orally at doses of 1500 mg/kg and 2000 mg/kg, respectively, continuously for 60 days. The 3 groups of mice chosen for the toxicity studies were healthy, of similar age and weights, and non-tumor-bearing. One group was used as control, and the other two groups were treated with the drug at two high-dose levels, 1500 mg/kg and 2000 mg/kg respectively, for about two months. The body weight changes in animals during the treatment were recorded for the treated group versus the untreated group beginning at day 0 and ending at the 60th day.
The body-weight loss was used as a parameter to measure the toxicity of the agent. Usually, body weight loss of 10% or more in mice during treatment is considered a sign of toxicity. Greater body-weight loss signifies greater toxicity.

[4] = tested on: HS766T pancreas tumor line; experiment: Effective dose, HS766T xenograft in nude mice; assay type: in vivo, human; conditions: oral, dose giving positive response
Procedure: as §1

human Melanoma lines = experiment: Anti-tumor activity, melanoma xenografts in nude mice; assay type: in vivo; conditions: oral
Text: as §2, §3

[5] = In situ single-pass intestinal perfusion, percentage absorption in mouse; assay type: in vivo, nude mice
Procedure: The determination of percentage absorption of crystalline CZ48 hydrate in mouse. Absorption studies were also performed with crystalline camptothecin-20-O-propionate hydrate by using a mouse perfusion procedure on 4 nude mice. Prior to the in situ single-pass perfusion procedure, HBSS buffer (pH 7.4) consisting of 9.801 g/L HBSS powders, 0.372 g/L NaHCO3, 3.502 g/L glucose, 5.963 g/L HEPES, and 1.164 g/L NaCl was prepared and stored in a refrigerator. The perfusate for the procedure was prepared by mixing a certain amount of the drug, crystalline CZ48 hydrate, with an amount of HBSS buffer. The mixture was heated up to 37° C. (body temperature) right before use. A group of 4 mice with weights ranging from 25 to 30 grams and ages ranging from 9 to 11 months were anesthetized and placed onto a heating plate. The plate was maintained a constant temperature of 37° C. After a perfusion system was set ready with a mouse, two segments of the intestine (small intestine, IS, and colon) were simultaneously perfused with the freshly prepared perfusate. The pump was maintained at a constant flow-rate of 0.191 mL/min for the whole perfusion. Two perfusate samples were collected from each outlet (SI tract or colon) every 30 min. The concentrations of the drug in perfusate from the outlets were determined by HPLC analysis, and the corresponding percentage absorptions were calculated relative to the starting amount of the drug and shown in Table 5.

PANC1-pancreas = experiment: Effective dose, PANC1 xenograft in nude mice; assay type: in vivo, human; conditions: oral, dose giving positive response
Procedure: as §1

[6] = tested on: human Pancreas tumor lines; experiment: Anti-tumor activity, pancreatic tumor xenografts in nude mice; assay type: in vivo; conditions: oral
Text: as §2
as §1, with “Treatment was initiated when the tumor had reached a volume of about 200 mm^3, i.e., well-vascularized, measurable, and growing exponentially.” left out, “The effective doses were established when a positive response in mouse was reached.” left out

human DSRCT line = experiment: Anti-tumor activity, DSRCT xenografts in nude mice; assay type: in vivo; conditions: oral
Text: as §2, §3

CAK-kidney = experiment: Effective dose, CAK xenograft in nude mice; assay type: in vivo, human; conditions: oral, dose giving positive response
Procedure: as §1

BOL bladder tumor line = experiment: Effective dose, BOL xenograft in nude mice; assay type: in vivo, human; conditions: oral, dose giving positive response
Procedure: as §1

SU86.86-pancreas = experiment: Effective dose, SU86.86 xenograft in nude mice; assay type: in vivo, human; conditions: oral, dose giving positive response
Procedure: as §1

McC colon tumor line = experiment: Effective dose, McC xenograft in nude mice; assay type: in vivo, human; conditions: oral, dose giving positive response
Procedure: as §1

[7] = tested on: PC3P62 prostate tumor line; experiment: Effective dose, PC3P62 xenograft in nude mice; assay type: in vivo, human; conditions: oral, dose giving positive response
Procedure: as §1

human Bladder tumor line = experiment: Anti-tumor activity, bladder tumor xenografts in nude mice; assay type: in vivo; conditions: oral
Text: as §2, §3

BRO melanoma line = experiment: Effective dose, BRO xenograft in nude mice; assay type: in vivo, human; conditions: oral, dose giving positive response
Procedure: as §1

SQU colon tumor line = experiment: Effective dose, SQU xenograft in nude mice; assay type: in vivo, human; conditions: oral, dose giving positive response
Procedure: as §1

WAR breast tumor line = experiment: Effective dose, WAR xenograft in nude mice; assay type: in vivo, human; conditions: oral, dose giving positive response
Procedure: as §1

[8] = tested on: MiaPaCa2 pancreas tumor line; experiment: Effective dose, MiaPaCa2 xenograft in nude mice; assay type: in vivo, human; conditions: oral, dose giving positive response
Procedure: as §1

LIE pancreas tumor line = experiment: Effective dose, LIE xenograft in nude mice; assay type: in vivo, human; conditions: oral, dose giving positive response
Procedure: as §1

[9] = tested on: ASPC1 pancreas tumor line; experiment: Effective dose, ASPC1 xenograft in nude mice; assay type: in vivo, human; conditions: oral, dose giving positive response
Procedure: as §1

human xenografts = experiment: In vivo anti-tumor activity against human tumor xenografts in nude mice (all lines); conditions: oral, cottonseed oil suspension, 5 days-on and 2 days-off schedule
Text: as §2, §3

SW48 colon tumor line = experiment: Effective dose, SW48 xenograft in nude mice; assay type: in vivo, human; conditions: oral, dose giving positive response
Procedure: as §1

FOSS melanoma line = experiment: Effective dose, FOSS xenograft in nude mice; assay type: in vivo, human; conditions: oral, dose giving positive response
Procedure: as §1

CLO-breast carcinoma = experiment: Effective dose, CLO xenograft in nude mice; assay type: in vivo, human; conditions: oral
Procedure: as §1

human Breast tumor lines = experiment: Anti-tumor activity, breast tumor xenografts in nude mice; assay type: in vivo; conditions: oral
Text: as §2, §3

HT29 colon tumor line = experiment: Effective dose, HT29 xenograft in nude mice; assay type: in vivo, human; conditions: oral, dose giving positive response
Procedure: as §1

MUR breast tumor line = experiment: Effective dose, MUR xenograft in nude mice; assay type: in vivo, human; conditions: oral, dose giving positive response
Procedure: as §1

human Colon tumor lines = experiment: Anti-tumor activity, colon tumor xenografts in nude mice; assay type: in vivo; conditions: oral
Text: as §2, §3

## CC[C@@]1(O)C(=O)OCc2c1cc1n(c2=O)Cc2cc3c([N+](=O)[O-])cccc3nc2-1 [9-nitrocamptothecin]
Human tumor xenografts
  potency relative to CPT: 2-3 times

## CC[C@@]1(O)C(=O)OCc2c1cc1n(c2=O)Cc2cc3ccccc3nc2-1 [CPT, camptothecin, reference compound]
[1]
  half-life: ~30 min
[2]; mice, oral hydrated crystalline CZ48 2000 mg/kg, plasma, CPT = major metabolite
  Ke: 0.40 ± 0.13 h⁻¹

## CCC(=O)O[C@]1(CC)C(=O)OCc2c1cc1n(c2=O)Cc2cc3ccccc3nc2-1 [hydrated crystalline CZ48, crystalline camptothecin-20-O-propionate hydrate]
MYE DSRCT line
  Effective dose: 100 mg/kg
DOY lung tumor line
  Effective dose: 15 mg/kg
Human Lung tumor lines
  Response Positive (inhibition of growth bigger than 50%), lines responding/tested: 2/2
SPA lung tumor line
  Effective dose: 100 mg/kg
[3]; 1500 mg/kg and 2000 mg/kg orally, non-tumor-bearing mice
  toxicity in the treated mice: no noticeable toxicity
[3]; oral, implied from no significant body-weight loss
  dose mice could tolerate: higher than 2000 mg/kg
[4]
  Effective dose: 100 mg/kg
Human Melanoma lines
  Response Positive (inhibition of growth bigger than 50%), lines responding/tested: 2/2
[5]; colon, average of 4 mice
  % Crystalline CZ48 Hydrate Absorptions, Colon, Ave: −19.46%
[5]; colon, individual mice No. 1-4, HBSS pH 7.4, 37° C., 0.191 mL/min, listed as Crystalline CZ48 Hydrate, hydrate
  % Crystalline CZ48 Hydrate Absorptions, Colon: 8.04% and −35.17% and −73.24% and 6.82%
[5]; small intestine, average of 4 mice
  % Crystalline CZ48 Hydrate Absorptions, SI, Ave: 22.23%
[5]; small intestine, individual mice No. 1-4, HBSS pH 7.4, 37° C., 0.191 mL/min, listed as Crystalline CZ48 Hydrate, hydrate
  % Crystalline CZ48 Hydrate Absorptions, SI: 11.49% and 16.51% and 9.34% and 45.85%
PANC1-pancreas
  Effective dose: 1000 mg/kg
[6]; Pancreas, nude mice
  Response Negative (inhibition of growth smaller than 50%), lines/tested: 1/7
  Response Positive (inhibition of growth bigger than 50%), lines responding/tested: 6/7
[6]; 5 days-on and 2 days-off schedule
  pancreatic tumor lines that failed to obtain the positive response: 2 lines
Human DSRCT line
  Response Positive (inhibition of growth bigger than 50%), lines responding/tested: 1/1
CAK-kidney
  Effective dose: 1000 mg/kg
BOL bladder tumor line
  Effective dose: 200 mg/kg
SU86.86-pancreas
  Effective dose: 1000 mg/kg
McC colon tumor line
  Effective dose: 300 mg/kg
[7]
  Effective dose: 300 mg/kg
Human Bladder tumor line
  Response Positive (inhibition of growth bigger than 50%), lines responding/tested: 1/1
BRO melanoma line
  Effective dose: 100 mg/kg
SQU colon tumor line
  Effective dose: 30 mg/kg
WAR breast tumor line
  Effective dose: 200 mg/kg
[8]
  Effective dose: 100 mg/kg
LIE pancreas tumor line
  Effective dose: 100 mg/kg
[9]
  Effective dose: 300 mg/kg
Human xenografts
  tumor lines that achieved positive response (greater than 50% inhibition in tumor-growth inhibition): 18 lines
SW48 colon tumor line
  Effective dose: 100 mg/kg
FOSS melanoma line
  Effective dose: 300 mg/kg
CLO-breast carcinoma; CLO (Breast), nude mice, dose giving positive response
  Effective dose: 4 mg/kg
CLO-breast carcinoma; CLO-breast carcinoma, dose 4 mg/kg
  tumor growth inhibition: complete inhibition
Human Breast tumor lines
  Response Positive (inhibition of growth bigger than 50%), lines responding/tested: 3/3
HT29 colon tumor line
  Effective dose: 50 mg/kg
MUR breast tumor line
  Effective dose: 300 mg/kg
[2]; nude, mouse, in vivo, po, 2000 mg/kg
  AUC(0-t): 1930 ± 114 ng·h/mL
Human Colon tumor lines
  Response Positive (inhibition of growth bigger than 50%), lines responding/tested: 4/4
